Results reported in patent publication US4593036A, “(-)-Trans-4-(4-fluorophenyl)-3-[(4-methoxyphenoxy)meth yl]-1-methylpiperidine useful as 5-HT potentiator” (priority 1984, dated 1986).

Key:
5-HT uptake = assay: Test 173: potentiation of 5-HTP (5-hydroxytryptophane) induced hypermotility in mice (inhibition of 5HT uptake, or 5HT potentiation, test); assay type: in vivo, mice (female, NMRI strain); conditions: for ED50: Mus musculus, sc, read-out: Test 173 (dose increasing the activity to double the activity found with controls receiving 5-HTP alone; ED50), s.c., 5-HTP 150 mg/kg i.p., motility 45-75 min after 5-HTP, water-soluble salt; for FG 8033 is better by: 5-HT Potentiation % / FG 8033 is better by: 5-HT Potentiation Factor: FG 8033 compared with the listed compound, mice s.c.
Description: I. POTENTIATION OF 5-HTP (5-HYDROXYTRYPTOPHANE) INDUCED HYPERMOTILITY IN MICE
This behavior is characterized by continuous jerky locomotion, head movements from side to side, abduction of the hind limbs, tremor, and lordosis.
Measurement of the motility after administration of test drugs to 5-HTP-pretreated mice is therefore used as a test for 5-HT-potentiation, which most probably proceeds through an inhibition of 5-HT uptake.
Female mice of the NMRI strain weighing 20-22 g are used. The controls receive 5-HTP 150 mg/kg (15 ml/kg) i.p. (i.p.=intraperitoneally) and thirty (30) minutes later physiological saline (20 ml/kg) s.c. (s.c.=subcutaneously). The motility is measured by an Animex™ motimeter 45-75 minutes after 5-HTP administration. The test animals received test substance s.c. (20 ml/kg) instead of physiological saline. Five groups of two (2) mice are used for control and per dose of each test drug. the test substance is dosed according to the dose scale 1, 1.6, 2.5, 4, 6.3, and 10 mg/kg etc.
The activity of the test animals is compared to the activity of controls. The best straight line is fitted through the points in a coordinate system (abscissa log dose, ordinate log activity). […] The activity of controls is investigated in thirty (30) groups of two (2) mice.

mice = assay: in vivo; conditions: for FG 8033 is better by: T.I. % / FG 8033 is better by: T.I. Factor: FG 8033 compared with the listed compound, mice s.c.
Procedure: (§1) (J. Buus Lassen, European Journal of Pharmacology 47, 351-358 (1978)). See also Squires in Acta Pharmacol. et Toxicol, 1972, 31 Suppl. 1,35 for a description of a further procedure for measurement of the same 5-HT uptake-inhibitory phenomenon.
(§2) II. ACUTE TOXICITY IN MICE
(§3) A variation of the procedure of J. Buus Lassen, et al. in European Journal of Pharmacology 32, 108-115 (1975) is employed. The test drug is administered s.c. in increasing doses to mice, four (4) animals at each dose level.
(§4) Results are expressed as LD50 = . . . mg/kg s.c.

in vivo = conditions: mouse, in vivo, sc
Procedure: as §1, §2, §3, §4

[1] = versus (+) trans isomer FG 8032
[2] = versus (+), trans des-p-fluoro compound FG 4963
[3] = versus (-), trans des-p-fluoro compound FG 4962

| SMILES | ED50 (5-HT uptake; mice) | FG 8033 is better by: 5-HT Potentiation % (5-HT uptake) | FG 8033 is better by: 5-HT Potentiation Factor (5-HT uptake) | FG 8033 is better by: T.I. % (mice) | FG 8033 is better by: T.I. Factor (mice) | further results |
| --- | --- | --- | --- | --- | --- | --- |
| COc1ccc(OC[C@@H]2CN(C)CC[C@H]2c2ccc(F)cc2)cc1.Cl (single isomer, unassigned) [FG 8032, (+)-trans-4-(4-fluorophenyl)-3-[(4-methoxyphenoxy)methyl]-1-methylpiperidine hydrochloride] | 23 mg/kg | – | – | – | – | – |
| COc1ccc(OC[C@@H]2CN(C)CC[C@H]2c2ccc(F)cc2)cc1 (relative stereo) [FG 98-I] | 1.3 mg/kg | 260% | 2.6 | 174% | 1.74 | – |
| COc1ccc(OC[C@@H]2CN(C)CC[C@H]2c2ccc(F)cc2)cc1 (single isomer, unassigned) [FG 8033, (-)-trans-4-(4-fluorophenyl)-3-[(4-methoxyphenoxy)-methyl]-1-methyl-piperidine] | 0.5 mg/kg | – | – | – | – | degree of activity in test for potentiation of 5-hydroxytryptophane-induced hypermotility (in words) (5-HT uptake; mice): remarkably and unpredictably superior in its 5-HT potentiation to the most structurally closely-related compounds evaluated; 5-HT potentiation activity relative to FG 8032 (5-HT uptake; [1]): 46 times; 5-HT potentiation activity relative to FG 8032, percent (5-HT uptake; [1]): 4600%; superiority as to 5-HT potentiation over FG 4963, factor (5-HT uptake; [2]): 5.6; superiority as to 5-HT potentiation over FG 4963, percent (5-HT uptake; [2]): 560%; 5-HT potentiation activity relative to FG 4962 (5-HT uptake; [3]): 7.6 times; 5-HT potentiation activity relative to FG 4962, percent (5-HT uptake; [3]): 760%; Therapeutic Index (in words) (mice; calculated as LD50/ED50): even more remarkably and unpredictably superior to those most structurally closely-related compounds when considering its Therapeutic Index; Therapeutic Index relative to FG 8032 (mice; [1]): more than 47 times; Therapeutic Index relative to FG 8032, percent (mice; [1]): > 4700%; superiority as to Therapeutic Index over FG 4963, factor (mice; [2]): greater than 5.97 times; superiority as to Therapeutic Index over FG 4963, percent (mice; [2]): > 597%; Therapeutic Index relative to FG 4962 (mice; [3]): more than 15 times; Therapeutic Index relative to FG 4962, percent (mice; [3]): > 1500% |
| COc1ccc(OC[C@H]2CNCC[C@@H]2c2ccccc2)cc1 (single isomer, unassigned) [FG 4996, reference compound] | 9 mg/kg | 1800% | 18 | 5714% | 57.14 | – |
| CC(=O)O.COc1ccc(OC[C@@H]2CNCC[C@H]2c2ccc(F)cc2)cc1 (single isomer, unassigned) [FG 8035, (+)-trans-4-(4-fluorophenyl)-3-((4-methoxyphenoxy)methyl)-piperidine acetate] | 22 mg/kg | 4400% | 44 | 3333% | 33.33 | – |
| CN1CC[C@@H](c2ccc(F)cc2)[C@H](COc2ccc3c(c2)OCO3)C1 (single isomer, unassigned) [FG 7043, reference compound] | 4 mg/kg | – | – | – | – | – |
| COc1ccc(OC[C@@H]2CN(C)CC[C@H]2c2ccccc2)cc1 (relative stereo) [FG 4932, reference compound] | 7.7 mg/kg | – | – | – | – | – |
| COc1ccc(OC[C@@H]2CNCC[C@H]2c2ccc(F)cc2)cc1 (single isomer, unassigned) [FG 7080, (-)-trans-4-(4-fluorophenyl)-3-[(4-methoxyphenoxy)-methyl]-piperidine] | 1 mg/kg | – | – | – | – | – |
| COc1ccc(OC[C@@H]2CN(C)CC[C@H]2c2ccccc2)cc1 (single isomer, unassigned) [FG 4962, reference compound] | 3.8 mg/kg | – | – | – | – | – |
| COc1ccc(OC[C@H]2CN(C)CC[C@@H]2c2ccccc2)cc1 (single isomer, unassigned) [FG 4963, reference compound] | 2.8 mg/kg | – | – | – | – | – |
| COc1ccc(OC[C@@H]2CNCC[C@H]2c2ccccc2)cc1 (single isomer, unassigned) [FG 7006, reference compound] | 20 mg/kg | 4000% | 40 | 4444% | 44.44 | selectivity ratio (in vivo): 18; Test 001 acute toxicity LD50 (mice; mice, s.c., lethality at 24 hours, water-soluble salt): 350 mg/kg |
